Here are results for two molecules from publication PMC11481179, “Development and Application of Reversible and Irreversible Covalent Probes for Human and Mouse Cathepsin‐K Activity Detection, Revealing Nuclear Activity” (Advanced Science, 2024).

For one assay, the system named is Jurkat cells. As to the kind of experiment: Cathepsin labeling in intact Jurkat cells that lack mature CTSK, fluorescent SDS-PAGE. In kind it is cell-based, human. To be noted: probe 5 µM, up to 24 h. On the procedure:
To further corroborate the selectivity of GD32, we tested the labeling of Jurkat cells, which lack mature CTSK. Intact cells were incubated with the probe for different durations up to 24 h before they were lysed and analyzed by fluorescent SDS‐PAGE. […] These findings led us to select GD32 as a lead compound for further investigation of CTSK's activity and location in different biological and medical samples. page 8: Figure S7. Cathepsin labeling in intact Jurkat cells that lack mature CTSK. Jurkat cells were treated with GD32 or GB123 (5 µM) in a culture medium for different durations up to 24 h, followed by cell lysis, and fluorescent SDS-PAGE analysis. […] The gel was analyzed by western blot with anti CTSK antibody. While pro-CTSK is detected, indicated by the black arrow, the mature CTSK is not detected. (1 picture or pasted object on this page, not shown here)

Assay [1] addresses T1, active CTSK in intact cells (MG-63, U-2 OS, U-87 MG) (Homo sapiens, UniProt P43235).
T1 construct: ability to label endogenous CTSK activity in intact cells; endogenous in cells; host or cells: MG-63, U-2 OS, U-87 MG
T1 sequence (P43235 115-329): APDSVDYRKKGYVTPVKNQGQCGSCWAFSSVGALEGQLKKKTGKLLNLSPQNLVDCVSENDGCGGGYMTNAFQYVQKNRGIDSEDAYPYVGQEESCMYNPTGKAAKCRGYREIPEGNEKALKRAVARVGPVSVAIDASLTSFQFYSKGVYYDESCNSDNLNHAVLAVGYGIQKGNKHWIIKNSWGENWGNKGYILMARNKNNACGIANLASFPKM
As to the kind of experiment: Labeling of endogenous CTSK in intact cells, fluorescent SDS-PAGE. Format: cell-based. The settings on record: probe 5 µM, fluorescent SDS PAGE method. On the procedure: Figure 2 Labeling of endogenous CTSK in intact cells. a) U2‐OS cells were treated with DMSO or 5 µM of the indicated inhibitors in culture medium, for 2 h, then with indicated ABPs [5 µM] in a culture medium for indicated times, followed by cell lysis, SDS‐PAGE separation, and fluorescent scanning of the gel at 635/670 nm. An immunoblot of CTSK of the same gel is presented below. b) Intact MG63 cells were treated with GD32 5 µM in the culture media for indicated times, cell lysates were analyzed as in a. CTSK immunoblot is presented, pro and mature CTSK are indicated by arrows. c) MG63 cells and d) U87MG cells were treated with DMSO, or 5 µM of indicated inhibitors in culture medium for 2 h, followed by incubation with 5 µM of indicated probes for 5 h (GD32 and GD42) and 2 h (GB123), cell lysates were analyzed by fluorescent SDS PAGE as in a. […] Cells were incubated with 5 µM GD32 for 24 h in growth media at indicated pHs, prior to the cell lysis, cell lysates were analysed as in a. […] Input (I), immunoprecipitation (IP), and output (O) were separated by a 14% SDS‐PAGE and scanned for fluorescence. […] We further corroborated the band identity by western blot with an anti‐CTSK antibody, where the mature active CTSK is detected at the same location on the gel (Figure 2). page 6: MG63 Ex/Em 635/670 nm b) Figure S5. […] Cell lysates were analyzed as described above. […]

With `C#CCNC(=O)[C@H](CC(C)C)N[C@@H](c1ccc(-c2ccc(S(=O)(=O)CCNC(=O)CCCCC[N+]3=C(/C=C/C=C/C=C4/N(C)c5ccc(S(=O)(=O)O)cc5C4(C)C)C(C)(C)c4cc(S(=O)(=O)O)ccc43)cc2)cc1)C(F)(F)F` [GD32], the “fluorescent bands after labeling” value in the assay on Jurkat cells is “no fluorescent bands were detected”.

With `CC(C)C[C@H](N[C@@H](c1ccc(-c2ccc(S(=O)(=O)CCNC(=O)CCCCC[N+]3=C(/C=C/C=C/C=C4/N(C)c5ccc(S(=O)(=O)O)cc5C4(C)C)C(C)(C)c4cc(S(=O)(=O)O)ccc43)cc2)cc1)C(F)(F)F)C(=O)NC1(C#N)CC1` [GD37], in assay [1], the “detection of binding to active CTSK” value is listed as “could not be detected”.
